Measurements: the NIST ThermoML archive (doi:10.1021/je400423u)

Experiment: xn = mol fraction of the nth substance listed
Settings: 101 kPa, Liquid; for viscosity: Falling or rolling sphere viscometry; for mass density: Vibrating tube method

CC(C)CO [2-methyl-1-propanol] + CC(C)(C)O
Settings	mass density [kg/m3]	viscosity [mPa·s]
308.15 K, x1 = 0.1038	773.016	2.723
308.15 K, x1 = 0.2004	775.321	2.802
308.15 K, x1 = 0.3131	777.898	2.84
308.15 K, x1 = 0.3971	779.742	2.837
308.15 K, x1 = 0.4999	781.894	2.812
308.15 K, x1 = 0.6002	783.901	2.773
308.15 K, x1 = 0.6999	785.765	2.723
308.15 K, x1 = 0.7993	787.468	2.667
308.15 K, x1 = 0.8941	788.855	2.607
308.15 K, x1 = 1	790.12	2.382
313.15 K, x1 = 0.1038	767.906	2.19
313.15 K, x1 = 0.2004	770.357	2.263
313.15 K, x1 = 0.3131	773.062	2.312
313.15 K, x1 = 0.3971	774.993	2.327
313.15 K, x1 = 0.4999	777.281	2.329
313.15 K, x1 = 0.6002	779.435	2.317
313.15 K, x1 = 0.6999	781.451	2.294
313.15 K, x1 = 0.7993	783.274	2.264
313.15 K, x1 = 0.8941	784.79	2.229
313.15 K, x1 = 1	786.12	2.116
318.15 K, x1 = 0.1038	762.689	1.786
318.15 K, x1 = 0.2004	765.271	1.852
318.15 K, x1 = 0.3131	768.112	1.904
318.15 K, x1 = 0.3971	770.15	1.93
318.15 K, x1 = 0.4999	772.578	1.949
318.15 K, x1 = 0.6002	774.881	1.955
318.15 K, x1 = 0.6999	777.066	1.954
318.15 K, x1 = 0.7993	779.045	1.94
318.15 K, x1 = 0.8941	780.694	1.919
318.15 K, x1 = 1	782.06	1.861
323.15 K, x1 = 0.1038	757.428	1.479
323.15 K, x1 = 0.2004	760.154	1.536
323.15 K, x1 = 0.3131	763.135	1.59
323.15 K, x1 = 0.3971	765.278	1.619
323.15 K, x1 = 0.4999	767.832	1.643
323.15 K, x1 = 0.6002	770.282	1.658
323.15 K, x1 = 0.6999	772.615	1.664
323.15 K, x1 = 0.7993	774.761	1.662
323.15 K, x1 = 0.8941	776.498	1.655
323.15 K, x1 = 1	777.93	1.602
328.15 K, x1 = 0.1038	752.049	1.243
328.15 K, x1 = 0.2004	754.907	1.293
328.15 K, x1 = 0.3131	758.027	1.342
328.15 K, x1 = 0.3971	760.272	1.372
328.15 K, x1 = 0.4999	762.978	1.4
328.15 K, x1 = 0.6002	765.582	1.42
328.15 K, x1 = 0.6999	768.076	1.433
328.15 K, x1 = 0.7993	770.382	1.438
328.15 K, x1 = 0.8941	772.239	1.439
328.15 K, x1 = 1	773.73	–
333.15 K, x1 = 0.1038	746.582	1.057
333.15 K, x1 = 0.2004	749.576	1.099
333.15 K, x1 = 0.3131	752.825	1.145
333.15 K, x1 = 0.3971	755.183	1.173
333.15 K, x1 = 0.4999	758.038	1.202
333.15 K, x1 = 0.6002	760.796	1.224
333.15 K, x1 = 0.6999	763.457	1.241
333.15 K, x1 = 0.7993	765.918	1.251
333.15 K, x1 = 0.8941	767.911	1.257
333.15 K, x1 = 1	769.44	–
338.15 K, x1 = 0.1038	741.045	0.9089
338.15 K, x1 = 0.2004	744.179	0.9461
338.15 K, x1 = 0.3131	747.58	0.9857
338.15 K, x1 = 0.3971	750.026	1.013
338.15 K, x1 = 0.4999	753.002	1.042
338.15 K, x1 = 0.6002	755.897	1.064
338.15 K, x1 = 0.6999	758.701	1.081
338.15 K, x1 = 0.7993	761.298	1.094
338.15 K, x1 = 0.8941	763.412	1.105
338.15 K, x1 = 1	765.07	–
343.15 K, x1 = 0.1038	735.409	0.7889
343.15 K, x1 = 0.2004	738.697	0.8213
343.15 K, x1 = 0.3131	742.239	0.8569
343.15 K, x1 = 0.3971	744.793	0.8812
343.15 K, x1 = 0.4999	747.895	0.9085
343.15 K, x1 = 0.6002	750.924	0.9302
343.15 K, x1 = 0.6999	753.891	0.9494
343.15 K, x1 = 0.7993	756.647	0.9642
343.15 K, x1 = 0.8941	758.895	0.9753
343.15 K, x1 = 1	760.61	–
